# Test results reported in US20060211740A1, “Novel compounds” (priority 2003, published 2006).
# Where “and” joins values, the source holds several entries; their conditions need not be identical. Equal entries are not always repeated. Structures can show the parent of a compound that is named as a salt.
# Tests used:
# Cathepsin D = Cathepsin D (Homo sapiens, UniProt P07339); experiment: Cathepsin D Inhibitory Assay; assay type: biochemical; conditions: FAM-[SEVNLDAEFK]-TAMRA substrate, pH 4.5, 1 h at room temperature, fluorescence; read-out: inhibition (CatD), Assay (II)
# Protocol: (II) Cathepsin D Inhibitory Assay
# (§1) For each compound being assayed, in a 384 well plate, is added:—
# (§2) a) 1 μl of a DMSO solution of the test compound (IC50 curve uses ten 1 in 2 serial dilutions from 500 μM).
# (§3) This is prepared by diluting 2 ml of a 2 mM DMSO solution of the substrate into 400 ml of buffer (100 mM Sodium acetate pH=4.5, 1 l Milli-Q water, 0.06% Triton X-100 (0.5 ml/l), pH adjusted to 4.5 using glacial acetic add).
# c) 10 μl enzyme solution. This is prepared by diluting 1.6 ml of a 200 unit/ml (in 10 mM HCl) enzyme solution into 398.4 ml of buffer (prepared as above).
# (§4) Blank wells (enzyme solution replaced by buffer) are included as controls on each plate. Wells are incubated for 1 h at room temperature and fluorescence read using a Tecan Ultra Fluorimeter/Spectrophotometer (485 nm excitation, 535 nm emission).
# Asp-2 = Asp-2 (Homo sapiens, UniProt P56817); experiment: Asp-2 Inhibitory Assay; assay type: biochemical; conditions: FAM-[SEVNLDAEFK]-TAMRA substrate, pH 4.5, 1 h at room temperature, fluorescence; read-out: inhibition (Asp2), Assay (I)
# Protocol: (I) Asp-2 Inhibitory Assay
# as §1, §2
# as §3, with “acid). Aminomethyl fluorescein (FAM) and tetramethyl rhodamine (TAMRA) are fluorescent molecules which co-operate to emit fluorescence at 535 nm upon cleavage of the […] peptide.” for “add).”
# c) 10 μl enzyme solution. This is prepared by diluting 16 ml of a 500 nM enzyme solution into 384 ml of buffer (prepared as above).
# as §4
# Asp-2, sequence (P56817 46-501): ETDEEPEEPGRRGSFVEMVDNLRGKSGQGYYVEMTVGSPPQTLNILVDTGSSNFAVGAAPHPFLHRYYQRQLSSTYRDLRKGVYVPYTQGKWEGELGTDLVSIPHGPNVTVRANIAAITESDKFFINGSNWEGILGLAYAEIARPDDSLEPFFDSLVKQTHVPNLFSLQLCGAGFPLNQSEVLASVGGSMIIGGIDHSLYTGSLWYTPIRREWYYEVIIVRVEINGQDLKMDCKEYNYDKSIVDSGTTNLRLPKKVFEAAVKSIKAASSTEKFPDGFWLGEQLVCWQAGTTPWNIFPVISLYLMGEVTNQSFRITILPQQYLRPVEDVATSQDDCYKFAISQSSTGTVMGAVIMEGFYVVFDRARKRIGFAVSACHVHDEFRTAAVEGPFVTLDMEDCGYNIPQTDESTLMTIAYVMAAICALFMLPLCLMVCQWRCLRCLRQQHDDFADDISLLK
# Cathepsin D, sequence (P07339 65-412, species assumed): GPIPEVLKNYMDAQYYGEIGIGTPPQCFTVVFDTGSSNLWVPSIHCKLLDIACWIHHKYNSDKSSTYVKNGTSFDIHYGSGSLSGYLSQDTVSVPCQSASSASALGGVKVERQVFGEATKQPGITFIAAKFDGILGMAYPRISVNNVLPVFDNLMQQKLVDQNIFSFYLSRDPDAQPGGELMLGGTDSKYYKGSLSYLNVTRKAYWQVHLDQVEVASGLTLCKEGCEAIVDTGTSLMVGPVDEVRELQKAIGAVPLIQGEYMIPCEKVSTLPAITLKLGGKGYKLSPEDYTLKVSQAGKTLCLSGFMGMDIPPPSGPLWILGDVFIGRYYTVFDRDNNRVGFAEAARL
SMILES,IC50 (Cathepsin D),IC50 (Asp-2)
"CS(=O)(=O)N(c1cccc(C#N)c1)c1cccc(C(=O)N[C@@H](Cc2ccccc2)[C@H](O)CNCc2cccc(C(F)(F)F)c2)c1 [Example E17, N-[(1S,2R)-1-Benzyl-2-hydroxy-3-(3-trifluoromethyl-benzylamino)-propyl]-[(3-cyano-phenyl)-methanesulfonyl-amino]-benzamide]",200 to 2500 nM,1 to 100 nM
C[C@H](NC[C@@H](O)[C@H](Cc1ccccc1)NC(=O)c1cc(N2CCCC2=O)cc(N(c2ccccc2)S(C)(=O)=O)c1)C(=O)NC1CCCCC1 [Example E41],200 to 2500 nM and 400 to 1000 nM,1 to 100 nM and 1 to 10 nM
"C#Cc1cc(C(=O)N[C@@H](Cc2ccccc2)[C@H](O)CNCc2cccc(C(F)(F)F)c2)cc(N(c2ccccc2)S(C)(=O)=O)c1 [Example E46, N-[(1S,2R)-1-Benzyl-2-hydroxy-3-(3-trifluoromethyl-benzylamino)-propyl]-ethynyl-(methanesulfonyl-phenyl-amino)-benzamide]",200 to 2500 nM,1 to 100 nM
"CS(=O)(=O)N(c1ccccc1)c1cc(C(=O)N[C@@H](Cc2ccccc2)[C@H](O)CNCc2cccc(OC(F)(F)F)c2)cc(N2CCCC2=O)c1 [Example E55, formate salt]",200 to 2500 nM and 400 to 1000 nM,1 to 100 nM and 1 to 10 nM
"CS(=O)(=O)N(c1ccccc1)c1cccc(C(=O)N[C@@H](Cc2ccccc2)[C@H](O)CNCc2cccc(C(F)(F)F)c2)c1F [Example E56, formate salt]",200 to 2500 nM,1 to 100 nM

# Next, values leading:
IC50 (Cathepsin D),IC50 (Asp-2),SMILES
200 to 2500 nM and 400 to 1000 nM,1 to 100 nM and 1 to 10 nM,CCSc1cc(C(=O)N[C@@H](Cc2ccccc2)[C@H](O)CNCc2cccc(C(F)(F)F)c2)cc(N(c2ccccc2)S(C)(=O)=O)c1 [Example E60]
200 to 2500 nM and 400 to 1000 nM,1 to 100 nM and 1 to 10 nM,"CS(=O)(=O)N(c1cccc(C#N)c1)c1cc(C(=O)N[C@@H](Cc2ccccc2)[C@H](O)CNCc2cccc(C(F)(F)F)c2)cc(N2CCCC2=O)c1 [Example E77, formate salt]"
200 to 2500 nM,1 to 100 nM,"C=C(C)c1cc(C(=O)N[C@@H](Cc2ccccc2)[C@H](O)CNCc2cccc(C(F)(F)F)c2)cc(N(c2ccccc2)S(C)(=O)=O)c1 [Example E83, N-[(1S,2R)-Benzyl-hydroxy-3-(3-trifluoromethyl-benzylamino)-propyl]-3-isopropenyl-5-(methanesulfonyl-phenyl-amino)-benzamide]"
